Experimental data from patent US7531547B2, “Diaminopyrimidines as P2X3 and P2X2/3 modulators” (Roche Palo Alto LLC, priority 2005, dated 2009).

Tests used:
[1] = molecular target: T1, rat P2X3 receptor (Rattus norvegicus, UniProt P49654); test: P2X3 FLIPR (Fluorometric Imaging Plate Reader) assay, CHO-K1 cells; format: cell-based; details: CHO-K1 cells transfected with rat P2X3; agonist α,β-meATP 1 μM; Fluo-3 calcium fluorescence; read-out: pIC50 for the P2X3 receptor (converted)
T1 construct: expressed in transfected cells; host or cells: CHO-K1
T1 sequence (P49654 1-397): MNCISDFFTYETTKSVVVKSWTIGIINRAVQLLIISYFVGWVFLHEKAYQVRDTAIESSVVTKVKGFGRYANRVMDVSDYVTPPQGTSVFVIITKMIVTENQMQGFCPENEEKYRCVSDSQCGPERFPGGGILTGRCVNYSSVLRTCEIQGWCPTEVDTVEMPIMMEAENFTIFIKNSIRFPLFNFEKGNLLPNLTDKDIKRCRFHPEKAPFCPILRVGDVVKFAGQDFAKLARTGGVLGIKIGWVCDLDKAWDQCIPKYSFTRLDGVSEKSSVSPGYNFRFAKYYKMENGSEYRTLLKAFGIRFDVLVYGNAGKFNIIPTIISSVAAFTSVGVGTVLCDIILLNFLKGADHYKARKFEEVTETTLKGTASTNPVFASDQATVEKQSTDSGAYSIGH
Method: (§1) CHO-K1 cells were transfected with cloned rat P2X3 or human P2X2/3 receptor subunits and passaged in flasks. 18-24 hours before the FLIPR experiment, cells were released from their flasks, centrifuged, and resuspended in nutrient medium at 2.5×10^5 cells/ml. The cells were aliquoted into black-walled 96-well plates at a density of 50,000 cells/well and incubated overnight in 5% CO2 at 37° C. On the day of the experiment, cells were washed in FLIPR buffer (calcium- and magnesium-free Hank's balanced salt solution, 10 mM HEPES, 2 mM CaCl2, 2.5 mM probenecid; FB). Each well received 100 μl FB and 100 μl of the fluorescent dye Fluo-3 AM [2 μM final conc.]. […]
(§2) Test compounds (dissolved in DMSO at 10 mM and serially diluted with FB) or vehicle were added to each well (25 μl of a 4× solution) and allowed to equilibrate for 20 minutes at room temperature. The plates were then placed in the FLIPR and a baseline fluorescence measurement (excitation at 488 nm and emission at 510-570 nm) was obtained for 10 seconds before a 100 μl/well agonist or vehicle addition. […] Fluorescence was measured for an additional 2 minutes at 1 second intervals after agonist addition. A final addition of ionomycin (5 μM, final concentration) was made to each well of the FLIPR test plate to establish cell viability and maximum fluorescence of dye-bound cytosolic calcium. […]

[2] = molecular target: T2, human P2X2/3 receptor (Homo sapiens, UniProt P56373+Q9UBL9); test: P2X2/3 FLIPR (Fluorometric Imaging Plate Reader) assay, CHO-K1 cells; format: cell-based; details: CHO-K1 cells transfected with human P2X2/3; agonist α,β-meATP 5 μM; Fluo-3 calcium fluorescence; read-out: pIC50 for the P2X2/3 receptor (converted)
T2 construct: expressed in transfected cells; host or cells: CHO-K1
T2 sequence (Q9UBL9 1-471): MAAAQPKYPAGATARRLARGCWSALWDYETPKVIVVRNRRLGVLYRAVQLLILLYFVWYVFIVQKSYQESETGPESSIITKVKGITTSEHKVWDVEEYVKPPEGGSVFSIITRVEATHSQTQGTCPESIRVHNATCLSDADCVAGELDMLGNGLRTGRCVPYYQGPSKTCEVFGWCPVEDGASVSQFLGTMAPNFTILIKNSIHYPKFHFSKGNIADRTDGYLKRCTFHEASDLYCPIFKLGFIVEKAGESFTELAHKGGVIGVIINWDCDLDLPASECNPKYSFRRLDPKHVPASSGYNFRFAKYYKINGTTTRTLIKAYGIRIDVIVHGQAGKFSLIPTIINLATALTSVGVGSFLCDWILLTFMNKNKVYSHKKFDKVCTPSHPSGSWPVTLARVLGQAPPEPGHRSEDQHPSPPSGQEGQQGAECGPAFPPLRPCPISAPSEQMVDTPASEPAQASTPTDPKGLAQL
T2 sequence (P56373 1-397): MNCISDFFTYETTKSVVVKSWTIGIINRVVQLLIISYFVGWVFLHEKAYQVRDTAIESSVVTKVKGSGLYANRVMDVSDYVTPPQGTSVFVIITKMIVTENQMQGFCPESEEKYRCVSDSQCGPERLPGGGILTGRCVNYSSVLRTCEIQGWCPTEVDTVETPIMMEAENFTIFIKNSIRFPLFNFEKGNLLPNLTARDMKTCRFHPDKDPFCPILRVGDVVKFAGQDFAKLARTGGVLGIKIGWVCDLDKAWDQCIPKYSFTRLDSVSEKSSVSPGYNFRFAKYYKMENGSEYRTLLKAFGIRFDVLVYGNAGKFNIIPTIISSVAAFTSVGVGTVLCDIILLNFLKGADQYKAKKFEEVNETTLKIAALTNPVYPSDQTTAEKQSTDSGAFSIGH
Method: as §1, §2

Row | IC50 [1] | IC50 [2] | melting point | SMILES
1 | ~5.75 nM | ~10.2 nM |  | C#Cc1cc(Oc2cnc(N)nc2N)c(C(C)C)cc1O [4-(2,4-Diamino-pyrimidin-5-yloxy)-2-ethynyl-5-isopropyl-phenol]
2 |  |  | 225.5 to 226.8 °C | COc1cc(C(C)C)c(Oc2cnc(N)nc2N)cc1C#CC1CC1 [Compound 19, 5-(5-Cyclopropylethynyl-2-isopropyl-4-methoxy-phenoxy)-pyrimidine-2,4-diamine]
3 |  |  | 163.2 to 164.1 °C | C#Cc1cc(Oc2cnc(N)nc2N)c(C#C)cc1OC [Compound 25, 5-(2,5-Diethynyl-4-methoxy-phenoxy)-pyrimidine-2,4-diamine]
4 |  |  | 156 to 159 °C | C#Cc1ccc(I)c(Oc2cnc(N)nc2N)c1 [Compound 27, 5-(5-Ethynyl-2-iodo-phenoxy)-pyrimidine-2,4-diamine]
